Literature values as cited in patent US20230218648A1, “USE OF HUMAN MILK OLIGOSACCHARIDES IN NUTRITIONAL COMPOSITIONS FOR ENHANCING BONE DEVELOPMENT AND/OR BONE STRENGTH” (SOCIETE DES PRODUITS NESTLE S.A., priority 2020, published 2023).

Test system: osteoclast and osteoblast biology
Conditions: reported by C.A. Cowardin et al., PNAS, 2019, 116

Substance: 2′-fucosyllactose [2′-FL]
- changes in bone-biology: failed to elicit changes in bone-biology
